In ChEMBL document CHEMBL1201862, “PubChem BioAssay data set” (2004):
Active and inactive are the calls of the source.

Experiments:
[1] = target: T1, Coagulation factor XII (Homo sapiens, UniProt P00748); assay type: functional;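 also: activated factor XIIa alpha cleaving a fluorogenic AMC peptide substrate; inhibitor potency from loss of enzyme activity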
T1 sequence (P00748 whole entry): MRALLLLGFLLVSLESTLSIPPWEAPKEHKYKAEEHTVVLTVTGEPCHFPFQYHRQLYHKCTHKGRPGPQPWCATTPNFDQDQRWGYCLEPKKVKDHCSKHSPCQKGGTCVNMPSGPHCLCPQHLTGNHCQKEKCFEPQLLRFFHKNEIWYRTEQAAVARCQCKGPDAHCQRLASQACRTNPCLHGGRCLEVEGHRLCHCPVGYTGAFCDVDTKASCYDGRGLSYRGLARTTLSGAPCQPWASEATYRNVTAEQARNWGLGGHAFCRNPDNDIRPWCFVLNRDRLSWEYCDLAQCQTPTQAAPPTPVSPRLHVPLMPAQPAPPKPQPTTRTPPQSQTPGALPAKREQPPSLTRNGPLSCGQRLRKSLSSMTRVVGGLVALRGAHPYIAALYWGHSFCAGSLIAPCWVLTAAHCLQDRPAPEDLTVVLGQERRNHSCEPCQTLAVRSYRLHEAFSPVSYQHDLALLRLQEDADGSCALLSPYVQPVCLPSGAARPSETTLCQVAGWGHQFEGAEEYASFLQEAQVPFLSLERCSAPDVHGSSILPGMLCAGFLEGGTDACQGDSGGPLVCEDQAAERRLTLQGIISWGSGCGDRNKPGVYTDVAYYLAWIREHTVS

[2] = Luminescence Cell-Based Dose Retest to Confirm Inhibitors of Cancer Stem Cells. [Related pubchem assays (depositor defined):AID2717, AID2721]; assay type: functional; conditions: Homo sapiens
[3] = system: HEK293; assay: cells; conditions: Homo sapiens
[4] = viability of PTEN-deleted HCT116 cells – cell-based, HCT116 PTEN knockout, dose response (AID 1047); assay type: functional;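 also: HCT116 colon tumor cells with PTEN knocked out; cells exposed to compound for 60 hours before readout; potency for loss of cell viability measured by luminescence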
[5] = system: HEK293; assay: cells; conditions: Homo sapiens; remark: listed apart in the source
[6] = viability of HCT116 lacking mutant beta-catenin – cell-based, human colon tumor, dose response (AID 1045); assay type: functional;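 also: HCT116 colon tumor cells with beta catenin knocked out; cells exposed to compound for 60 hours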
[7] = target: T2, Ubiquitin-conjugating enzyme E2 N (Homo sapiens, UniProt P61088); assay type: functional
T2 sequence (P61088 whole entry): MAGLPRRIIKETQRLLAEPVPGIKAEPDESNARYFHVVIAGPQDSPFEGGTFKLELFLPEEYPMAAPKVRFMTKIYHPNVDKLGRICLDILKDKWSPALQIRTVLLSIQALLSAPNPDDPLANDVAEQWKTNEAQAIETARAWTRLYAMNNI

[8] = target: T2, Ubiquitin-conjugating enzyme E2 N; assay type: functional; remark: listed apart in the source
[9] = target: T3, Bcl-2-related protein A1 (Mus musculus, UniProt Q07440); assay type: functional;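 also: confirmatory dose–response counterscreen on Bfl-1, used to check hits from a UBC13 polyubiquitin inhibitor campaign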
T3 sequence (Q07440 whole entry): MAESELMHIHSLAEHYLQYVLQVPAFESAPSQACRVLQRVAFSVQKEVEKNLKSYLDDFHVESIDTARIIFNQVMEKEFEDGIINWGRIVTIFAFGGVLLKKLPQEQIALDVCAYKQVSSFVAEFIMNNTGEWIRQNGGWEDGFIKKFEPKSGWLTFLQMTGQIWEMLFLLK

[10] = viability of uninfected HEp-2 cells – cell-based, HTS, cytotoxicity control for RSV inhibitor project, dose response (AID 2410); assay type: functional; conditions: human respiratory syncytial virus
[11] = system: H9c2; assay: cells; assay type: functional, cell-based; conditions: Rattus norvegicus, H9c2, Myocardium;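 also: confirmatory concentration-response retest of ultra-high-throughput screening hits for modulation of myocardial damage; cell death induced by hydrogen peroxide oxidative stress; compound pretreatment for 60 min then peroxide exposure for 2 h; potency is for protecting the cells against peroxide damage rather than for killing them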
[12] = A cytotoxicity screen of small molecule inhibitors of the PhoP region in Salmonella typhi identified in the primary screen. [Related pubchem assays: 1850, 1864, 1985 ]; assay type: functional
[13] = target: T4, Estrogen receptor (Homo sapiens, UniProt P03372);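 also: potency for inhibiting coactivator peptide recruitment to the receptor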
T4 sequence (P03372 whole entry): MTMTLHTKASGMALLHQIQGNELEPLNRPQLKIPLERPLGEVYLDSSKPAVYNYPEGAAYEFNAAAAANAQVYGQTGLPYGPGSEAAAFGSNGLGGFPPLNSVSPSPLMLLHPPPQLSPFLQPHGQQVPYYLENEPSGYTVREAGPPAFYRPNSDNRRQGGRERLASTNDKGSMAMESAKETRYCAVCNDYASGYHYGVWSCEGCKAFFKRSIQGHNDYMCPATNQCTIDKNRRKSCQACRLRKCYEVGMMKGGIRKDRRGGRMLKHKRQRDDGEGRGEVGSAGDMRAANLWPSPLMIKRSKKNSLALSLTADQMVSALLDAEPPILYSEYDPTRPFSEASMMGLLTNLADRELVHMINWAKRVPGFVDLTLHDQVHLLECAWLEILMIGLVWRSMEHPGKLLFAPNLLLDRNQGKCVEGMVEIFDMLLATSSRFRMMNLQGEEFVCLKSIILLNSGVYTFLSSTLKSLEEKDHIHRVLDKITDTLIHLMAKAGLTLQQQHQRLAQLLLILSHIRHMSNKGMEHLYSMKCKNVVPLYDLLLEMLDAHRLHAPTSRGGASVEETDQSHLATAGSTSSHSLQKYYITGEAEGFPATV

[14] = A Cell Based Secondary Assay To Explore Cytotoxicity of Compounds that Sensitize Mycobacterium Tuberculosis to Beta-Lactam Antibiotics.; assay type: functional
[15] = target: Cytochrome P450 3A4 (Homo sapiens, UniProt P08684); conditions: Potency;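 also: confirmatory qHTS run detecting inhibitors and substrates of CYP3A4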
[16] = target: Trypsin (Sus scrofa, UniProt P00761); assay: trypsin protease activity blockade – biochemical, quenched peptide fluorescence, cherry-pick, selectivity assay for Rce1 protease inhibitor project, dose response (AID 488789)
[17] = target: Beta-2 adrenergic receptor (Homo sapiens, UniProt P07550); assay: ADRB2 activation measured by internalization – cell-based, FAP fluorogen, flow cytometry, cherry pick 1, dose response (AID 588763); assay type: functional
[18] = target: SUMO-activating enzyme (Homo sapiens, UniProt Q9UBT2); assay: blockers of UBC9-mediated SUMO conjugation – biochemical, AlphaScreen, SUMOylation inhibitor project, confirmation (AID 2018); assay type: functional
[19] = NIH3T3 cell viability loss – ATP luminescence, mouse fibroblasts, counter-screen, dose response (AID 2010); assay type: functional, cell-based;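 also: cells exposed to compound for about 90 hours before reading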
[20] = Trypanosoma cruzi growth suppression in host cells – NIH3T3 host cells, beta-gal luminescence, confirmation (AID 2044); assay type: functional, cell-based;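 also: intracellular parasites grown in NIH/3T3 mouse fibroblasts as host cells; luminescent beta-galactosidase reporter signal from transgenic T. cruzi replicating inside host cells; inhibitors lower the luminescence signal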
[21] = Luminescence Cell-Based Dose Response to Identify Activators of Luciferase Translation or Activity in H4-C Neuroglioblastoma Cells. [Related pubchem assays: 1829 (Project Summary), 1814 (Primary HTS)]; assay type: functional
[22] = Luminescence Cell-Based Dose Response to Identify Activators of 5'UTR Stem-Loop Driven Prion Protein mRNA Translation in H4-C Neuroglioblastoma Cells. [Related pubchem assays: 1829 (Project Summary), 1814 (Primary HTS)]; assay type: functional
[23] = Luminescence Cell-Based Dose Response HTS to Identify Activators of Luciferase Translation or Activity in H4 […] Cells. [Related pubchem assays: 1829 (Project Summary), 1814 (Primary HTS)]; assay type: functional
[24] = system: H4; assay: Luminescence Cell-Based Dose Response HTS to Identify Activators of 5'UTR Stem-Loop Driven Prion Protein mRNA Translation in H4 Neuroglioblastoma Cells. [Related pubchem assays: 1829 (Project Summary), 1814 (Primary HTS)]; assay type: functional; conditions: Homo sapiens
[25] = Luminescence Cell-Based Dose Confirmation to Identify Activators of 5'UTR Stem-Loop Driven Alpha-Synuclein mRNA Translation in H4 Neuroglioblastoma Cells. [Related pubchem assays: 1829 (Project Summary), 1814 (Primary HTS)]; assay type: functional

Chain of SUMO-activating enzyme (Q9UBE0 whole entry): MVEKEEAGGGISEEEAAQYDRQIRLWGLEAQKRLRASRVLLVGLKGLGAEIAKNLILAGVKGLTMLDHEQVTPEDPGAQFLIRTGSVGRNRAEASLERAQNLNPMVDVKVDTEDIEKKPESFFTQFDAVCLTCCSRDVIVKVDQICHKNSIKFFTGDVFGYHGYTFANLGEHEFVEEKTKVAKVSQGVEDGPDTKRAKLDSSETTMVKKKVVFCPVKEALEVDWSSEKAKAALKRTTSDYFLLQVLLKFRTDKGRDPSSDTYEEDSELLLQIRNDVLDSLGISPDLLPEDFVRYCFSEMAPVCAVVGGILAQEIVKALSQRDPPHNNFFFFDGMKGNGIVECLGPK
Chain of SUMO-activating enzyme (Q9UBT2 whole entry): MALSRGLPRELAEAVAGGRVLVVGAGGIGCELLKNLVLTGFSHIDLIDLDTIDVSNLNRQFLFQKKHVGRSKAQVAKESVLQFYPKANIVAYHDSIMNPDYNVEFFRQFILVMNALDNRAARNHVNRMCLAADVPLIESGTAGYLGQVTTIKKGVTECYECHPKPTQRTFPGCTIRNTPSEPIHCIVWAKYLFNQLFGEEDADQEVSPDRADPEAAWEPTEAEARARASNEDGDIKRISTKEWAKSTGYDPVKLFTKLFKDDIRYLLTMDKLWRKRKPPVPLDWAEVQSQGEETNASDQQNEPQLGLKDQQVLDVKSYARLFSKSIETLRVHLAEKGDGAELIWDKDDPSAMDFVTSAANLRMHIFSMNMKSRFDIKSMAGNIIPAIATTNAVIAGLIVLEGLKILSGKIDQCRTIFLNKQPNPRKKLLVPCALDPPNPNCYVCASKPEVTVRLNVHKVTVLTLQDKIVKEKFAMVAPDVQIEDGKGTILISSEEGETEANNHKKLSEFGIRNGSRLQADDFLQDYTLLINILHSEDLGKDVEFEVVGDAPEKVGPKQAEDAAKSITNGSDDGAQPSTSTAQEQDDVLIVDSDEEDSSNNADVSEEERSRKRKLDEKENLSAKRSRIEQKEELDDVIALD
Chain of Cytochrome P450 3A4 (P08684 whole entry): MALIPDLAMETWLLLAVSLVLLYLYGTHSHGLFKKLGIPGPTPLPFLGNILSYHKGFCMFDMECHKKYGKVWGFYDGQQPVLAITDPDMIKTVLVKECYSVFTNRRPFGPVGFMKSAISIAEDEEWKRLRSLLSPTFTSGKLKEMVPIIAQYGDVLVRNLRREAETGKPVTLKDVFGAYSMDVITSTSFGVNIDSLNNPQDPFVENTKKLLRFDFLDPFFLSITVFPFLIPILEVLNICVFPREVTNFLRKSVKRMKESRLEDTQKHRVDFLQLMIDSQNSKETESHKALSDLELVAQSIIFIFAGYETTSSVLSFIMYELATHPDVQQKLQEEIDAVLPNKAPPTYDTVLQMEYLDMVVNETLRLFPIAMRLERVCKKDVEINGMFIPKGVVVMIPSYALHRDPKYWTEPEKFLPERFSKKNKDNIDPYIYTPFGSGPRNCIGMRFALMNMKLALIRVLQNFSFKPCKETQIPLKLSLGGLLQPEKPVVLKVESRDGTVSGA
Chain of Beta-2 adrenergic receptor (P07550 whole entry): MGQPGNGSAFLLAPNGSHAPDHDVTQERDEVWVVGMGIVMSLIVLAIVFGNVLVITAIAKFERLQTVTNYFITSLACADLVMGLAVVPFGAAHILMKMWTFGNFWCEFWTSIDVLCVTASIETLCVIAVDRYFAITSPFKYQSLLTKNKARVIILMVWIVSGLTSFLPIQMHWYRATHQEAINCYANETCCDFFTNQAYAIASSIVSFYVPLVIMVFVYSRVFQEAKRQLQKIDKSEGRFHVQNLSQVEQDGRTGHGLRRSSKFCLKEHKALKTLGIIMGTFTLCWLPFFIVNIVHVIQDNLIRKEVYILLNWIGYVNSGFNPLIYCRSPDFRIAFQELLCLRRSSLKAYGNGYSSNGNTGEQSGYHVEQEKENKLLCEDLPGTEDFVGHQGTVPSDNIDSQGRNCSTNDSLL
Chain of Trypsin (P00761 whole entry): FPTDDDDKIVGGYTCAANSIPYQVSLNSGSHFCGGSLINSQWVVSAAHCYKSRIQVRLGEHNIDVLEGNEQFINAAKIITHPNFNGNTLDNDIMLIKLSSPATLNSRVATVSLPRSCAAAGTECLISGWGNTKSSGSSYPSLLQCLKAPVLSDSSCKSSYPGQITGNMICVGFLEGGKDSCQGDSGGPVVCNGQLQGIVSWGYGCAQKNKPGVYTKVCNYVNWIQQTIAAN

For `Cc1ccc2cc(CN(C(=O)c3cccs3)c3ccccc3)c(O)nc2c1`, the IC50 [1] was > 50 µM (inactive).
For `CC1CCN(S(=O)(=O)c2ccc3c(c2)C(=NO)c2cc(S(=O)(=O)N4CCC(C)CC4)ccc2-3)CC1`, the AC50 [2] was 0.584 µM (active), the EC50 [3] was > 59.6 µM (inactive) and the EC50 [4] was 0.303 µM (active). For the same compound, the EC50 [5] was > 59.6 µM (inactive) and the EC50 [6] was 0.265 µM (active).
For `COc1cc(/C=N/NC(=O)CSCc2ccc([N+](=O)[O-])cc2)cc(OC)c1OC`, the IC50 [7] was 7.06 µM (active), the IC50 [8] was 4.56 µM (active) and the IC50 [9] was > 20 µM (inactive).
With `Cc1ccc(N(CC(O)CN2C(=O)NC(C)(C)C2=O)S(=O)(=O)c2ccc(C)cc2)cc1` (centres undefined) the IC50 [1] was > 50 µM (inactive).
For `CCOC(=O)c1cccc(Nc2nc(-c3cccnc3)nc3ccccc23)c1`, the IC50 [7] was 15.2 µM (active), the CC50 [10] was 14 µM (active) and the IC50 [11] was 24 µM (active). For the same compound, the IC50 [8] was 14.5 µM (active) and the IC50 [9] was > 20 µM (inactive).
For `O=C(/C=C/c1c(F)cccc1Cl)N1CCOCC1`, the EC50 [12] was > 50 µM (active).
With `CCSc1nnc(NC(=O)C2Cc3ccccc3CN2C(=O)c2ccco2)s1` (centres undefined) the IC50 [13] was 7.47 µM (active) and the CC50 [14] was > 40 µM (active).
For `C=C1CCC2C(CC2(C)C)C(=C)CC/C1=N/O` (centres undefined) [5-HYDROXYIMINOISOCARYOPHYLLENE], the AC50 [15] was 31.6 µM (inconclusive).
With `CCCNC(=O)c1ccccc1NC(=O)c1ccccc1N(C)S(=O)(=O)c1ccc(C)cc1` the EC50 [3] was > 59.6 µM (inactive) and the EC50 [5] was > 59.6 µM (inactive).
For `COc1ccnc2c1c(=O)n(Cc1ccc(Cl)cc1)c(=O)n2C`, the IC50 [7] was 8.22 µM (active), the IC50 [8] was 11.7 µM (active) and the IC50 [9] was 4.03 µM (active).
For `COc1ccc(CSc2ccc(-c3nc4ccccn4c3NCc3ccccc3)cc2OC)cc1`, the AC50 [16] was 4.45 µM (active) and the EC50 [17] was 1.32 µM (active).
In the case of `Cc1ccc(/C=N/NC(=O)c2cccc(S(=O)(=O)Nc3cccc(Cl)c3)c2)o1`, the IC50 [18] is reported as 82.1 µM (active).
In the case of `O=C(c1ccc2c3c(cccc13)CC2)C1CCCN(Cc2ncc[nH]2)C1` (centres undefined), the EC50 [12] is reported as > 50 µM (active).
With `COC(=O)N1[C@H](C)C=C[C@]1(Cc1ccccc1)C(=O)NCc1ccccn1` the AC50 [15] was 3.98 µM (inconclusive).
For `COC(=O)Cc1c(C)nc2nc(-c3ccc(C)cc3)nn2c1O`, the IC50 [1] was > 50 µM (inactive).
With `COc1ccc(N(CCCN2C(=O)c3cccc4cccc(c34)C2=O)C(=O)c2cccnc2)cc1` the EC50 [19] was > 60 µM (not active), the EC50 [12] was > 50 µM (active) and the EC50 [20] was 0.666 µM (active).
For `CCn1cnc2cc(NCc3ccc(Br)cc3)ccc21`, the EC50 [12] was > 50 µM (active).
In the case of `O=C(COC(=O)CC1CCCC1)Nc1cc2c(cc1Cl)C(=O)c1ccccc1C2=O`, the EC50 [21] is reported as 0.438 µM (active), the IC50 [13] is reported as 22.3 µM (active) and the EC50 [22] is reported as 2.27 µM (active). For the same compound, the EC50 [23] was < 0.1 µM (inconclusive), the EC50 [24] was 21.7 µM (active) and the EC50 [25] was 0.497 µM (active).
In the case of `C#CCOCCOCCOCCNc1nc(N2CCOCC2)nc(N2CCN(C(=O)[C@H](CCCCN)n3cc(CN)nn3)CC2)n1`, the IC50 [7] is reported as > 20 µM (inactive), the IC50 [8] is reported as 15.3 µM (active) and the IC50 [9] is reported as > 20 µM (inactive).
In the case of `CCCCn1c(N)c(C(=O)OCCOC)c2nc3ccccc3nc21`, the IC50 [18] is reported as 38 µM (active).
